Source: patent US8710097B2, “Flavonoid dimers and methods of making and using such” (The Hong Kong Polytechnic University, priority 2006, dated 2014)
≈ marks a conversion by molar mass, not a printed value. Like-named read-outs stand apart in the source and are kept apart here.

Columns and labels:
[1] = molecular target: NBD2 cytosolic domain of mouse P-gp (Mus musculus, UniProt P06795); details: reported in literature; cited from earlier work
[2] = system: leukemic K562/R7 cells; details: literature; cited from earlier work
[3] = system: wild type L. enriettii (Le); experiment: Leishmania cell viability (MTS) assay; type: cell-based, Leishmania enriettii
Description: (§1) Cell lines and Cell Culture. Promastigotes of Leishmania enriettii (LePentR50, Le wild type, LeMDR1 −/− and LeMDR1-overexpressed LeV160 mutants) and Leishmania donovani (LdAG83, Ld2001 and Ld39) were employed in this study. The former is a natural infective strain of guinea pig and the latter is a clinical strain, which may cause visceral leishmaniasis in human. Both strains were cultured in Schneider's Drosophila Medium (Invitrogen), pH 6.9 supplemented with 10% (v/v) heat inactivated fetal calf serum (Hyclone) with 4 mM glutamine (Sigma) and 25 μg/mL gentamicin solution (Invitrogen), at 27° C. for 4 days (Cloning and functional analysis of an extrachromosomally amplified multidrug resistance-like gene in Leishmania enriettii. Mol. Biochem. Parasitol 1993, 60, 195-208).
(§2) Promastigotes of LeV160 were culture in the presence of 160 μg/mL vinblastine. No pentamidine and vinblastine (Sigma) was added to the Le wild type and LeMDR1 −/− mutant.
The viability of promastigotes was determined by the Cell Titer 96® Aqueous Assay (Promega) that employs a tetrazolium compound (MTS) and electron coupling reagent, phenazine methosulfate (PMS). Promastigotes were seeded into 96-well flat bottom microtiter plate at 1×10^5 cells per well in a final volume of 100 μL medium. To determine the cytotoxic effects of flavonoid dimers to the parasites, various concentrations of flavonoid dimers were added to the promastigotes. To determine the reversal effects of flavonoid dimers with different spacer lengths, various concentrations of antileishmanial drugs, one of pentamidine or SSG, vinblastine and puromycin was added to the wells with or without flavonoid dimers. The parasites were incubated at 27° C. for 72 hrs. Each concentration of antileishmanials with or without the flavonoid dimers was tested in triplicates in each experiment. A 2 mg/mL MTS and 0.92 mg/mL PMS were mixed at a ratio of 20:1 (MTS: PMS). […] After 4 hrs of incubation, the OD values were determined at 490 nm using automatic microtiter plate reader (Bio-Rad).

[4] = system: pentamidine-resistant L. enriettii LePentR50 promastigotes; experiment: microbe, parasite or virus in culture; details: for IC50: Leishmania enriettii
Description: as §1, §2
(§3) The viability of promastigotes was determined by the Cell Titer 96® Aqueous Assay (Promega) that employs a tetrazolium compound (MTS) and electron coupling reagent, phenazine methosulfate (PMS). Promastigotes were seeded into 96-well flat bottom microtiter plate at 1×10^5 cells per well in a final volume of 100 μL medium. To determine the cytotoxic effects of flavonoid dimers to the parasites, various concentrations of flavonoid dimers were added to the promastigotes. To determine the reversal effects of flavonoid dimers with different spacer lengths, various concentrations of antileishmanial drugs, one of pentamidine or SSG, vinblastine and puromycin was added to the wells with or without flavonoid dimers. The parasites were incubated at 27° C. for 72 hrs. Each concentration of antileishmanials with or without the flavonoid dimers was tested in triplicates in each experiment. A 2 mg/mL MTS and 0.92 mg/mL PMS were mixed at a ratio of 20:1 (MTS: PMS). After 72-hr incubation, 10 μL of MTS:PMS mixture was added into each well of microtiter plate. The plate was then incubated at 27° C. for 4 hrs for color development. After 4 hrs of incubation, the OD values were determined at 490 nm using automatic microtiter plate reader (Bio-Rad).

[5] = system: LeMDR1 overexpressed L. enriettii (LeV160); experiment: Leishmania cell viability (MTS) assay; type: cell-based, Leishmania enriettii; details: Leishmania enriettii, read-out: IC50 of pentamidine (μg/ml), no modulator
Text: (§4) Cell lines and Cell Culture.

[6] = system: LeMDR1 knockout (LeMDR1 −/−) L. enriettii; experiment: Leishmania cell viability (MTS) assay; type: cell-based, Leishmania enriettii; details: Leishmania enriettii, read-out: IC50 of pentamidine (μg/ml), no modulator
Text: as §4

[7] = system: MDA435/LCC6 cells; experiment: Doxorubicin accumulation; type: cell-based, human; details: LCC6, basal P-gp; dimers 10 μM, monomer 20 μM
Description: Doxorubicin accumulation. […] At confluence, culture medium was removed. 2 ml of fresh DMEM with modulators was added and cells were incubated for 30 min at 37° C. Doxorubicin (final concentration of 20 μM) was then added and incubated for 2 h at 37° C. The cells were then harvested by trypsinization.

[8] = system: P388 cells; experiment: Doxorubicin accumulation; type: cell-based, murine
Description: (§5) For P388 (both parent and MDR subtype) cells, 1 ml (10^5 cells) confluent cells were aliquot into Eppendorf tube and pre-incubated with flavone dimers for 30 min at 37° C. Doxorubicin (final concentration of 10 μM) was then added and incubated for 2 h at 37° C. at a final concentration of 10 μM. The cell pellets were washed 3 times with cold PBS by using an Eppendorf micro-centrifuge and lysed with 0.3N HCL in 50% ethanol, and sonicated for 30s. After centrifugation at 10000 rpm/min for 3 min, the supernatant was saved. The fluorescence of doxorubicin was measured using a spectrofluorometer (λexcite=470 nm, λemit=585 nm).

[9] = system: MDA435/LCC6 MDR cells; experiment: Doxorubicin accumulation; type: cell-based, human; details: LCC6 MDR; apigenin dimers 10 μM; 20 μM doxorubicin, 2 h
Description: Doxorubicin accumulation. 2.5 ml (10^5 cells/ml) MDA435/LCC6 (both parent and MDR subtype) cells were seeded in each well of 6-well plates. At confluence, culture medium was removed. 2 ml of fresh DMEM with modulators was added and cells were incubated for 30 min at 37° C. Doxorubicin (final concentration of 20 μM) was then added and incubated for 2 h at 37° C. The cells were then harvested by trypsinization.
as §5
In order to understand whether the modulating activity for various anticancer drugs by different dimers is due to their different ability to modulate P-gp mediated drug efflux, their effects on the accumulation of doxorubicin in both MDA435/LCC6 sensitive and resistant cells were investigated. Doxorubicin was a fluorescent drug substrate of P-gp and was used in this experiment to monitor the P-gp mediated drug efflux. Accumulation of doxorubicin in these cells was determined in the presence or absence of apigenin dimers (10 μM) and monomer (20 μM). Verapamil was used as a positive control.

[10] = system: SSG-resistant L. donovani Ld39 promastigotes; experiment: microbe, parasite or virus in culture; type: cell-based, Leishmania donovani
Description: as §1, with “195-208). […]” for “195-208).”
as §3

[11] = system: P388/ADR cells; experiment: Doxorubicin accumulation; type: cell-based, murine; details: monomer 10b at double concentration of the dimers, FIG. 11A
Description: as §5

[12] = system: tested MDR cell lines (drug resistant breast cancer and leukemia cells); type: cell-based; details: tested MDR cell lines; 10 μM
Text: Cell proliferation assay.

[13] = system: MDA435/LCC6 MDR cells; experiment: cells; details: MDA435/LCC6 MDR
[14] = system: wild type L. donovani LdAG83 promastigotes; experiment: Leishmania cell viability (MTS) assay; type: cell-based, Leishmania donovani; details: Leishmania donovani, 72 h, read-out: IC50(μM) of synthetic flavonoid, LdAG83
Description: as §1, with “195-208). […]” for “195-208).”
as §3

[15] = system: P388/ADR cells; experiment: cells
Description: MDA435/LCC6 and P388 (both parent and MDR subtype) were maintained in DMEM and RPMI 1640 culture medium supplemented with 10% FBS, respectively. RPMI 1640 media also contained 100 units/ml penicillin and 100 μg/ml streptomycin. Cells were cultured at 37° C. in a humidified atmosphere with 5% CO2. A solution of 0.05% trypsin-EDTA was used to detach the MDA435/LCC6 (both wild type and MDR subtype) cells.
Cell proliferation assay. MDA435/LCC6 and P388 (both parent and MDR subtype) cells were seeded at 2000 and 5000 cells per well, respectively, in 96-well plates. Varying concentrations of anticancer drugs (Doxorubicin, Daunorubicin, Vincristine, Vinblastine, taxol, Mitoxantrone) with or without the flavonoid dimers were added in a final volume of 200 μl and cells were grown for 4 and 3 days for MDA435/LCC6 and P388 (both parent and MDR subtype) cells, respectively. For MDA435/LCC6 (both parent and MDR subtype), the corresponding drugs were added after cell attachment (24 hr incubation). To measure cell proliferation, the cell Titer 960 Aqueous Assay (Promega) was used according to the manufacturer's instructions. Briefly, MTS (2 mg/ml) and PMS (0.92 mg/ml) were mixed in a ratio of 20:1. 30 μl MTS/PMS mixture was added into each well and incubated for 2 hours at 37° C. Optical absorbance at 490 nm was then recorded using an ELISA microtiter plate reader (Bio-Rad). Each experiment was done at least in triplicate and repeated twice. Cytotoxicity of the anticancer drugs was expressed as the fraction of the cells survived relative to the untreated DMSO (0.05%) solvent controls.

[16] = system: Ltrmdr1; details: literature; cited from earlier work

Chain of NBD2 cytosolic domain of mouse P-gp (P06795 1033-1271 limits assumed): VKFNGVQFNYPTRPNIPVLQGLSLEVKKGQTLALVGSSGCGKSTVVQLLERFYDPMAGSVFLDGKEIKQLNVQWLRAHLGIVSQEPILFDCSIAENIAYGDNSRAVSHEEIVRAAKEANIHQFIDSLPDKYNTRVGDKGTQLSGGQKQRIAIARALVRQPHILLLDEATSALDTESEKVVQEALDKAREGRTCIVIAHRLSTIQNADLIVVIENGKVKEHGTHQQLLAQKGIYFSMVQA

For `O=c1c(O)c(-c2ccc(O)c(O)c2)oc2cc(O)cc(O)c12` [quecetin], which “binding to NBD2 cytosolic domain of mouse P-gp” value (“binding … of mouse P-gp” below) [1] is on record?
Its value is “bind directly”.

For `CC(C)=CCc1c(O)cc(O)c2c(=O)cc(-c3ccccc3)oc12` [8-Prenylchrysin], which “inhibition of P-gp mediated drug efflux” value [2] is on record?
Its value is “inhibited P-gp mediated drug efflux”.

With `N=C(N)c1ccc(OCCCCCOc2ccc(C(=N)N)cc2)cc1` [pentamidine, reference compound] as the molecule, how does the “IC50 of pentamidine (μg/ml), no modulator” value ([3]; Le wild type) read?
The value was 12.0 ± 0.8 µg/mL.

And the IC50 ([3]; Leishmania enriettii, read-out: IC50 of pentamidine (μg/ml), no modulator, Le wild type)?
The IC50 was ~8.7 µg/mL (≈ 25.6 µM).

What about the “survival of LePentR50” value ([4]; 60 μg/ml pentamidine alone) of the same molecule?
The value was 94.0±2.3 % of untreated.

And the IC50 ([4]; read-out: IC50 of pentamidine alone, LePentR50, no modulator (DMSO))?
The IC50 was 117 µg/mL.

What about the IC50 [5] of the same molecule?
Its IC50 is 9 ± 0.1 µg/mL (≈ 26.4 µM).

What about the IC50 [6] of the same molecule?
The IC50 was 18.9 ± 0.8 µg/mL (≈ 55.5 µM).

Which “inhibition of P-gp mediated drug efflux” value [2] does the source give for `CC(C)=CCc1c(O)cc2oc(-c3ccccc3)cc(=O)c2c1O` [6-Prenylchrysin] here?
The value was “inhibited P-gp mediated drug efflux”.

With `O=c1c(O)c(-c2ccc(O)cc2)oc2cc(O)cc(O)c12` [kaempferol] as the molecule, how does the “binding … of mouse P-gp” value [1] read?
Its value is “bind directly”.

Which “accumulation of doxorubicin in LCC6” value [7] does the source give for `COc1ccc(CCN(C)CCCC(C#N)(c2ccc(OC)c(OC)c2)C(C)C)cc1OC` (stereo not shown) [Verapamil, reference compound] here?
Its value is “unaffected”.

And the “doxorubicin accumulation in parent sensitive cells” value [8]?
The value was “almost unaffected”.

What about the pentamidine sensitization ([4]; LePentR50, FIG. 18A) of the same molecule?
The pentamidine sensitization was “less than half-fold sensitization”.

What about the “enhancement of doxorubicin accumulation, folds of control” value [9] of the same molecule?
The value was 6.2 folds.

For dehydrosilybin, which “binding … of mouse P-gp” value [1] is on record?
The value was “bind directly”.

Which results are given for `O=c1cc(-c2ccc(OCCOCCOCCOCCO)cc2)oc2cc(O)cc(O)c12` [Compound 10b, 12-[4′-((5,7-dihydroxy)-4H-chromen-4-on-2-yl)phenyl]-3,6,9,12-tetraoxadodecan-1-ol]?
SSG resistance modulating activity ([10]; Ld39, 12 μM, FIG. 14B): did not give any significant modulating activity; IC50 ([10]; Leishmania donovani, 72 h, read-out: IC50(μM) of synthetic flavonoid, Ld39): > 200 µM; activity on doxorubicin accumulation [11]: little or no activity at all; IC50 ([4]; 72 h, read-out: IC50(μM) of synthetic flavonoid, LePentR50, cytotoxicity of compound alone, 72 hrs): > 200 µM; anticancer activity of monomers alone [12]: no anticancer activity; doxorubicin resistance reversal ([13]; monomers): ineffective reversers; reversing effect on taxol resistance ([13]; monomers at 10 μM): little reversing effect; IC50 [14]: > 200 µM; modulatory activity on doxorubicin and daunorubicin cytotoxicity [15]: little modulatory activity

With `COc1ccc(-c2oc3c(CC=C(C)C)c(O)cc(O)c3c(=O)c2O)cc1` [8-dimethylallylkaempferide] as the molecule, how does the “modulation (inhibition of Ltrmdr1) compared with cyclosporine A or verapamil” value [16] read?
The value was “better modulator than either cyclosporine A or verapamil”.
